Laboratory results published in patent US20100279990A1, “ANTIPROLIFERATIVE COMPOUNDS, COMPOSITIONS AND METHODS OF USE” (RAMOT AT TEL-AVIV UNIVERSITY LTD., priority 2006, published 2010).

How the values were obtained:
[1] = tested on: c-jun and p-c-jun expression in HaCat cells; test: Western blot of c-jun and p-c-jun expression in HaCat cells; type: cell-based, human; conditions: 15 μM, 1 hr
From the text: For each sample 2×10^7 cells were used. The cells were lysed, and equal amounts of protein was fractionated on polyacrylamide gel and then transferred to PVDF membrane. The amount of the protein was detected by immuno-blotting with monoclonal anti-c-Jun or p-c-Jun antibodies (Cayman, Ann Arbor, Mich., USA). A second antibody conjugated to horseradish peroxidase was used and visualized with chemiluminescent Kit (Pierce, Rockford, Ill., USA) on film. […] Activation of the […] pathway produces p-c-Jun as a major end, while initiating apoptosis in certain cell-lines.

[2] = tested on: Caspase 3 activity in human Jurkat lymphoma cells; test: Caspase 3 activity in human Jurkat lymphoma cell-line, fluorimetric Ac-DEVD-AMC; type: cell-based; conditions: 4 hr after exposure, compared to vehicle treated cells
Procedure: This example illustrates Caspase 3 activity data obtained by administering compound (Ia) to a human Jurkat lymphoma cell-line. The results are depicted FIG. 8A. Each point is the mean of 2 determinations.
Caspase 3 activity was measured by an enzymatic fluorimetric method using a fluorigenic substrate (Ac-DEVD-AMC), which produces blue fluorescence detected at 360 nm wavelength. See Garcia-Calvo et al., J Biol Chem, 273(49), 32608-13 (1998). When AMC is cleaved from the substrate by caspase-3, and caspase-3-like enzymes, it produces a yellow-green fluorescence, which can be monitored by a fluorimeter at 460 nm. The amount of yellow green fluorescence is proportional to the activity of caspase-3 in the cell extract sample.
The human Jurkat lymphoma cell-line, as used in FIG. 8A, and the human MDR colon cancer LS1034 lysates, as used in FIG. 8B, were prepared by Triton X-100 extraction 4 hr after exposure to the applicable compound (10 or 20 μM) or the vehicle. Whole cell lysate was added to a buffer containing 100 μM peptide substrate, 100 mM HEPES, 10% glycerol, 1 mM EDTA and 10 mM dithiothreitol. Measurements were taken every 5 min for 80 min. These experiments were also monitored in the presence of a specific caspase-3 inhibitor, DEVD-AMC-CHO, which was added after 45 or 60 min to the reaction mixture, to ascertain the specificity of the enzyme.

Jurkat Lymphoma cells = test: Viability of Jurkat Lymphoma cells, combination with Doxorubicin; type: cell-based; conditions: Homo sapiens, read-out: inhibition of cell viability
[3] = tested on: CEM/C1 cell-lines (camptothecin resistant human T-cell leukemia); test: Viability of CEM/C1 cell-line, alamar blue; type: cell-based; conditions: 1-30 μM
From the text: This cell-line is a camptothecin (CPT) resistant derivative of the human T-cell leukemia purchased from ATCC (USA). […] The results are depicted in FIG. 14. Each point represents the mean+/−SEM of 4 determinations.

[4] = tested on: human colon carcinoma cells (HT29); test: HT29 human colon carcinoma s.c. tumor in Nude CD1 male mice; type: in vivo
From the text: This example illustrates the effect of several compounds, including an exemplary compound of the present invention, on tumor volume. tumor weight and body weight in mice. Nude CD1 male mice were purchased from Harlan (Israel). Animals were housed under controlled conditions (temperature, humidity) and were given food and water ad libitum. After one week of acclimatization animals were inoculated s.c. with human colon carcinoma cells (HT29) (2,000,000 cell/animals.). Therapy began 8 days after inoculation, at which time the animals were divided randomly into 4 groups (7-8 mice/group) and administered ip 3 times weekly for 4 weeks with the following compounds: […] Body weight and tumor volume were measured weekly. Tumor volume is defined as (shortest diameter)^2×(longest diameter)×0.5. At the end of the treatment, animals were sacrificed and tumors and organs collected and weighed.

CNXF 498NL = test: Monolayer Assay, PI: CNXF 498NL; type: cell-based, human
From the text: (§1) This example illustrates cell proliferation data in the form of IC50, IC70 and IC90 values obtained by exposure of human cancer cell-lines to compound (Ia). […].

GXF 251L = test: Monolayer Assay, PI: GXF 251L (Gastric); type: cell-based, human
From the text: as §1

LXF 1121L = test: Monolayer Assay, PI: LXF 1121L (Lung); type: cell-based, human
From the text: as §1

LXF 289L = test: Monolayer Assay, PI: LXF 289L (Lung); type: cell-based, human
From the text: as §1

MEXF 276L = test: Monolayer Assay, PI: MEXF 276L (Melanoma); type: cell-based, human
From the text: as §1

PRXF PC3M = test: Monolayer Assay, PI: PRXF PC3M (Prostate); type: cell-based, human
From the text: as §1

CN[C@H]1CC[C@@H](c2ccc(Cl)c(Cl)c2)c2ccc(C#CCCCO)cc21 [compound (Ia), (1S-cis)-4-(3,4-dichlorophenyl)-7-(5-hydroxy-1-pentyn-1-yl)-1,2,3,4-tetrahydro-N-methyl-1-naphthalenamine hydroiodide]
effect on c-Jun / p-c-Jun (MAPK pathway) [1]: activation of the c-Jun-N-terminal kinase (JNK) pathway | Caspase 3 activity [2]: increase in the activity of the caspase-3 | cytotoxicity at 5 µM (Jurkat Lymphoma cells; 5 μM alone): 18% | cytotoxicity at 10 µM (Jurkat Lymphoma cells; 10 μM alone): 59.5% | IC50 [3]: 8.9 µM | tumor weight ([4]; HT29 tumor in nude mice, end of treatment, FIG. 17): very similar to the tumor weight of mice treated with 5 FU | tumor volume ([4]; HT29 tumor in nude mice, ip 3 times weekly, after 3 and 4 weeks of therapy, FIG. 16): significantly decreased compared to the control groups | decrease in body weight ([4]; compared to 5 FU or controls, FIG. 18): 10% | histopathological assessment of spleen, liver and kidney ([4]; end of treatment): change in capsule fibrosis at random | efficacy in inhibiting human colon cancer tumor growth ([4]; mice model, 30 mg/kg ip): high efficacy superior to sertraline | Test/Control (%) (CNXF 498NL; 2.3 μg/ml): 101% | Test/Control activity class (CNXF 498NL; 2.3 μg/ml): − (− (T/C = 50)) | Test/Control (%) (CNXF 498NL; 7.5 μg/ml): 5% | Test/Control activity class (CNXF 498NL; 7.5 μg/ml): +++ (+++ (T/C < 10)) | Test/Control (%) (CNXF 498NL; 23. μg/ml): 3% | Test/Control activity class (CNXF 498NL; 23. μg/ml): +++ (+++ (T/C < 10)) | Test/Control (%) (CNXF 498NL; 75. μg/ml): 1% | Test/Control activity class (CNXF 498NL; 75. μg/ml): +++ (+++ (T/C < 10)) | Test/Control (%) (CNXF 498NL; .75 μg/ml): 97% | Test/Control activity class (CNXF 498NL; .75 μg/ml): − (− (T/C = 50)) | Test/Control (%) (GXF 251L; 2.3 μg/ml): 80% | Test/Control activity class (GXF 251L; 2.3 μg/ml): − (− (T/C = 50)) | Test/Control (%) (GXF 251L; 7.5 μg/ml): 54% | Test/Control activity class (GXF 251L; 7.5 μg/ml): − (− (T/C = 50)) | Test/Control (%) (GXF 251L; 23. μg/ml): 7% | Test/Control activity class (GXF 251L; 23. μg/ml): +++ (+++ (T/C < 10)) | Test/Control (%) (GXF 251L; 75. μg/ml): 3% | Test/Control activity class (GXF 251L; 75. μg/ml): +++ (+++ (T/C < 10)) | Test/Control (%) (GXF 251L; .75 μg/ml): 90% | Test/Control activity class (GXF 251L; .75 μg/ml): − (− (T/C = 50)) | Test/Control (%) (LXF 1121L; 2.3 μg/ml): 104% | Test/Control activity class (LXF 1121L; 2.3 μg/ml): − (− (T/C = 50)) | Test/Control (%) (LXF 1121L; 7.5 μg/ml): 72% | Test/Control activity class (LXF 1121L; 7.5 μg/ml): − (− (T/C = 50)) | Test/Control (%) (LXF 1121L; 23. μg/ml): 2% | Test/Control activity class (LXF 1121L; 23. μg/ml): +++ (+++ (T/C < 10)) | Test/Control (%) (LXF 1121L; 75. μg/ml): 1% | Test/Control activity class (LXF 1121L; 75. μg/ml): +++ (+++ (T/C < 10)) | Test/Control (%) (LXF 1121L; .75 μg/ml): 103% | Test/Control activity class (LXF 1121L; .75 μg/ml): − (− (T/C = 50)) | Test/Control (%) (LXF 289L; 2.3 μg/ml): 101% | Test/Control activity class (LXF 289L; 2.3 μg/ml): − (− (T/C = 50)) | Test/Control (%) (LXF 289L; 7.5 μg/ml): 42% | Test/Control activity class (LXF 289L; 7.5 μg/ml): + (+ (30 <= T/C < 50)) | Test/Control (%) (LXF 289L; 23. μg/ml): 4% | Test/Control activity class (LXF 289L; 23. μg/ml): +++ (+++ (T/C < 10)) | Test/Control (%) (LXF 289L; 75. μg/ml): 3% | Test/Control activity class (LXF 289L; 75. μg/ml): +++ (+++ (T/C < 10)) | Test/Control (%) (LXF 289L; .75 μg/ml): 94% | Test/Control activity class (LXF 289L; .75 μg/ml): − (− (T/C = 50)) | Test/Control (%) (MEXF 276L; 2.3 μg/ml): 88% | Test/Control activity class (MEXF 276L; 2.3 μg/ml): − (− (T/C = 50)) | Test/Control (%) (MEXF 276L; 7.5 μg/ml): 30% | Test/Control activity class (MEXF 276L; 7.5 μg/ml): + (+ (30 <= T/C < 50)) | Test/Control (%) (MEXF 276L; 23. μg/ml): 4% | Test/Control activity class (MEXF 276L; 23. μg/ml): +++ (+++ (T/C < 10)) | Test/Control (%) (MEXF 276L; 75. μg/ml): 5% | Test/Control activity class (MEXF 276L; 75. μg/ml): +++ (+++ (T/C < 10)) | Test/Control (%) (MEXF 276L; .75 μg/ml): 95% | Test/Control activity class (MEXF 276L; .75 μg/ml): − (− (T/C = 50)) | Test/Control (%) (PRXF PC3M; 2.3 μg/ml): 91% | Test/Control activity class (PRXF PC3M; 2.3 μg/ml): − (− (T/C = 50)) | Test/Control (%) (PRXF PC3M; 7.5 μg/ml): 4% | Test/Control activity class (PRXF PC3M; 7.5 μg/ml): +++ (+++ (T/C < 10)) | Test/Control (%) (PRXF PC3M; 23. μg/ml): 1% | Test/Control activity class (PRXF PC3M; 23. μg/ml): +++ (+++ (T/C < 10)) | Test/Control (%) (PRXF PC3M; 75. μg/ml): 1% | Test/Control activity class (PRXF PC3M; 75. μg/ml): +++ (+++ (T/C < 10)) | Test/Control (%) (PRXF PC3M; .75 μg/ml): 95% | Test/Control activity class (PRXF PC3M; .75 μg/ml): − (− (T/C = 50))
